In US20080269251A1, “Substituted Pyrazinone Derivatives as Alpha2C-Adrenoreceptor Antagonists” (priority 2005, published 2008):

How the values were obtained:
[1] = molecular target: T1, human adrenergic-α2A receptor (Homo sapiens, UniProt P08913); test: Radioligand binding experiment for hα2A-adrenergic receptor ([3H]raulwolscine); conditions: [3H]raulwolscine 1 nM, 60 minutes at 25° C.; for IC50: read-out: h-α2A pIC50 (converted)
T1 construct: expressed in transfected cells; host or cells: CHO cells, stably transfected; membrane preparation
T1 sequence (P08913 1-465): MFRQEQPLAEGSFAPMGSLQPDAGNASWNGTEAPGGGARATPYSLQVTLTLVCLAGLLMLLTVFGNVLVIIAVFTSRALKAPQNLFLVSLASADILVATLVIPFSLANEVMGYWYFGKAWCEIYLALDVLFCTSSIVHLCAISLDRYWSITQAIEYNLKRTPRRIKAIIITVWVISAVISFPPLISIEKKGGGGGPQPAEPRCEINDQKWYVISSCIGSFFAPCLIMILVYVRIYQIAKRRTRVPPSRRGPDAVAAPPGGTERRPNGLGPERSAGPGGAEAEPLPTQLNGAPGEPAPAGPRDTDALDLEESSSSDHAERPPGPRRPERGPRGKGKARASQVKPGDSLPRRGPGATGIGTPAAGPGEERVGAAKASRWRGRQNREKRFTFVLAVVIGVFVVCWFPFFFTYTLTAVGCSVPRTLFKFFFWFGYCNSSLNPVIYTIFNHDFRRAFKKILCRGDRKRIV
Method in brief: (§1)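 CHO membranes expressing human α2A or α2C receptors were incubated with 1 nM [^3H]raulwolscine for 60 min at 25° C in glycylglycine 25 mM, pH 8.0, then filtered. Nonspecific binding was defined with 1 μM oxymetazoline for α2A and 1 μM spiroxatrine for α2C. pIC50 came from sigmoidal competition curves.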

[2] = molecular target: T2, human adrenergic-α2C receptor (Homo sapiens, UniProt P18825); test: Radioligand binding experiment for hα2C-adrenoceptor ([3H]raulwolscine); conditions: [3H]raulwolscine 1 nM, 60 minutes at 25° C.; for IC50: read-out: h-α2C pIC50 (converted)
T2 construct: expressed in transfected cells; host or cells: CHO cells, stably transfected; membrane preparation
T2 sequence (P18825 1-462): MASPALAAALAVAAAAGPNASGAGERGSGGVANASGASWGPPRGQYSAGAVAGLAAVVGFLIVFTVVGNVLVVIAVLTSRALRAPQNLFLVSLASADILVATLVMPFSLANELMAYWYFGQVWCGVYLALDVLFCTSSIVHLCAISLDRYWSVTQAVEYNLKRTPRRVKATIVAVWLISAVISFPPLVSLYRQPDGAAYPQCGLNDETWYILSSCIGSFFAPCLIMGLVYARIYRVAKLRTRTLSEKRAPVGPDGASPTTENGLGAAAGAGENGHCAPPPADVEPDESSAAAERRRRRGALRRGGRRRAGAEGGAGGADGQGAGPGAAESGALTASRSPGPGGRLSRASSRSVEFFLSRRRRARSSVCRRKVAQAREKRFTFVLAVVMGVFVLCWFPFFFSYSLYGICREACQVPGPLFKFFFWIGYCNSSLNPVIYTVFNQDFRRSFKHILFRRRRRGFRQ
Method in brief: as §1

[3] = molecular target: T3, 5HT-transporter (Homo sapiens, UniProt P31645); test: Binding experiment for the 5HT-transporter ([3H]paroxetine, human platelet membranes); conditions: [3H]paroxetine 0.5 nM, 60 min at 25° C.; for IC50: read-out: h-5HTT pIC50 (converted)
T3 construct: Human platelet membranes (Oceanix Biosciences Corporation, Hanover, Md., USA) were thawed; tissue Oceanix Biosciences Corporation, Hanover, Md., USA; host or cells: human platelet membranes
Method in brief: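 Competition binding of [3H]paroxetine to human platelet membranes in Tris-HCl 50 mM with 120 mM NaCl and 5 mM KCl; bound radioligand separated by GF/B filtration and counted.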

T3 sequence (P31645 whole entry): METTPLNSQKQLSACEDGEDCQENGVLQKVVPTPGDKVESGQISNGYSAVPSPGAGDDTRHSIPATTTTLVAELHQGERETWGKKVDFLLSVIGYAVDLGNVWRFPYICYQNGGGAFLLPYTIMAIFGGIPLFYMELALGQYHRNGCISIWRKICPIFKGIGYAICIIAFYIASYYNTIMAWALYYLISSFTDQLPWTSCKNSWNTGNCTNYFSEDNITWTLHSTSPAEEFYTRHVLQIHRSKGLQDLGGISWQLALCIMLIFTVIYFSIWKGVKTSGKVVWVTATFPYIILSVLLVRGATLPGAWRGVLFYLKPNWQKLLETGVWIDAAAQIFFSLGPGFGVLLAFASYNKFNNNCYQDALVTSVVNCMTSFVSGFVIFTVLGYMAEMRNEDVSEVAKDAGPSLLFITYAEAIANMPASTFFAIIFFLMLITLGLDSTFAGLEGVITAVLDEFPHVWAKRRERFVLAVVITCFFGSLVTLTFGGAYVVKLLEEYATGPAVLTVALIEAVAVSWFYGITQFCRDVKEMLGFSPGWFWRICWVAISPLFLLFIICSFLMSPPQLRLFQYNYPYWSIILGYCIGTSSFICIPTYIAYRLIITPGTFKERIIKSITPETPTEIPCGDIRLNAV

| IC50 [1] | IC50 [2] | IC50 [3] | h-α2A pIC50 [1] | h-α2C pIC50 [2] | h-5HTT pIC50 [3] | Structure (SMILES) |
| --- | --- | --- | --- | --- | --- | --- |
| 200 nM | 251 nM | 126 nM |  |  |  | COc1ccc(Cn2c(-c3ccc(CO)cc3)c(Cl)nc(NC3CCN(Cc4ccc5ccccc5c4)CC3)c2=O)cc1 [8-03] |
| 1260 nM | 1260 nM | 794 nM |  |  |  | COC(=O)c1ccc(-c2c(Cl)nc(NC3CCN(Cc4ccc5ccccc5c4)CC3)c(=O)n2Cc2ccc(OC)cc2)cc1 [8-04] |
| 501 nM | 158 nM | 100 nM |  |  |  | COc1ccc(Cn2c(-c3cccc(CNCC4CCCO4)c3)c(Cl)nc(NC3CCN(Cc4ccc5ccccc5c4)CC3)c2=O)cc1 (stereo not drawn) [8-07] |
| 316 nM | 200 nM | 63.1 nM |  |  |  | COc1ccc(Cn2c(-c3ccc(CNCC4CCCO4)cc3)c(Cl)nc(NC3CCN(Cc4ccc5ccccc5c4)CC3)c2=O)cc1 (stereo not drawn) [8-08] |
| 100 nM | 50.1 nM | 50.1 nM |  |  |  | COc1ccc(Cn2c(-c3cccc(CN4CCCCC4)c3)c(Cl)nc(NC3CCN(Cc4ccc5ccccc5c4)CC3)c2=O)cc1 [8-09] |
| 158 nM | 79.4 nM | 31.6 nM |  |  |  | COc1ccc(Cn2c(-c3cccc(CN4CCC(O)CC4)c3)c(Cl)nc(NC3CCN(Cc4ccc5ccccc5c4)CC3)c2=O)cc1 [8-10] |
| 126 nM | 39.8 nM | 31.6 nM |  |  |  | COc1ccc(Cn2c(-c3ccc(CN4CCC(O)CC4)cc3)c(Cl)nc(NC3CCN(Cc4ccc5ccccc5c4)CC3)c2=O)cc1 [8-11] |
| 100 nM | 79.4 nM | 126 nM |  |  |  | COc1ccc(Cn2c(-c3cccc(CN4CCC(F)CC4)c3)c(Cl)nc(NC3CCN(Cc4ccc5ccccc5c4)CC3)c2=O)cc1 [8-12] |
| 501 nM | 126 nM | 126 nM |  |  |  | COc1ccc(Cn2c(-c3cccc(N4CCC(N5CCCC5)CC4)c3)c(Cl)nc(NC3CCN(Cc4ccc5ccccc5c4)CC3)c2=O)cc1 [8-13] |
| 501 nM | 126 nM | 50.1 nM |  |  |  | COc1ccc(Cn2c(-c3cccc(CN4CCN(C)CC4)c3)c(Cl)nc(NC3CCN(Cc4ccc5ccccc5c4)CC3)c2=O)cc1 [8-14] |
| 631 nM | 79.4 nM | 31.6 nM |  |  |  | O=C1c2ccccc2C(=O)N1CCCn1ccnc(N2CCN(Cc3ccc4ccccc4c3)CC2)c1=O [9-01] |
|  |  |  | 6.6 | 7.5 | 7.3 | O=C(O)C(F)(F)F.O=C1c2ccccc2C(=O)N1CCCn1ccnc(NCCN2CCN(Cc3ccc4ccccc4c3)CC2)c1=O [9-02] |
| 251 nM | 39.8 nM | 39.8 nM |  |  |  | O=C(CCN(c1nccn(CCC(=O)c2ccccc2)c1=O)C1CCN(Cc2ccc3ccccc3c2)CC1)c1ccccc1 [9-03] |
| 1580 nM | 794 nM | 25.1 nM |  |  |  | O=C(CCn1ccnc(NC2CCN(Cc3ccc4ncccc4c3)CC2)c1=O)c1ccccc1 [9-05] |
| 1260 nM | 316 nM | 39.8 nM |  |  |  | O=c1c(NC2CCN(Cc3ccc4ncccc4c3)CC2)nccn1CCCOCc1ccccc1 [9-06] |
| 1580 nM | 63.1 nM | 50.1 nM |  |  |  | O=C1c2ccccc2C(=O)N1CCCn1ccnc(NC2CCN(Cc3ccc4ncccc4c3)CC2)c1=O [9-07] |
| 316 nM | 50.1 nM | 126 nM |  |  |  | O=C(CCN(c1nccn(CCC(=O)c2ccccc2)c1=O)C1CCN(Cc2ccc3ccccc3n2)CC1)c1ccccc1 [9-09] |
| 501 nM | 63.1 nM | 794 nM |  |  |  | O=c1c(NC2CCN(Cc3ccc4ncccc4c3)CC2)nccn1CCCOc1ccccc1 [9-12] |
| 3160 nM | 398 nM | > 10000 nM |  |  |  | O=c1[nH]ccnc1NC1CCN(Cc2ccc3ncccc3c2)CC1 [9-13] |
| 631 nM | 126 nM | 3980 nM |  |  |  | CCOC(=O)CCCCn1ccnc(NC2CCN(Cc3ccc4ccccc4n3)CC2)c1=O [9-14] |
| 631 nM | 158 nM | 631 nM |  |  |  | O=c1c(NC2CCN(Cc3ccc4ccccc4n3)CC2)nccn1CCOc1ccccc1 [9-15] |

The remaining lines, values behind:

| Structure (SMILES) | IC50 [1] | IC50 [2] | IC50 [3] | h-α2A pIC50 [1] | h-α2C pIC50 [2] | h-5HTT pIC50 [3] |
| --- | --- | --- | --- | --- | --- | --- |
| O=c1c(NC2CCN(Cc3ccc4ccccc4c3)CC2)nccn1Cc1cccc([N+](=O)[O-])c1 [5-09] | 200 nM | 79.4 nM | 50.1 nM |  |  |  |
| O=Cc1ccc(-n2ccnc(NC3CCN(Cc4ccc5ccccc5c4)CC3)c2=O)cc1 [5-10] | 316 nM | 63.1 nM | 100 nM |  |  |  |
| O=Cc1ccc(-n2ccnc(NC3CCN(Cc4ccc5ccccc5c4)CC3)c2=O)cc1F [5-11] | 398 nM | 63.1 nM | 39.8 nM |  |  |  |
| O=c1c(NC2CCN(Cc3ccc4ccccc4c3)CC2)nccn1Cc1cccc(Br)c1 [5-13] | 200 nM | 126 nM | 126 nM |  |  |  |
| O=c1c(NC2CCN(Cc3ccc4ccccc4c3)CC2)nccn1-c1nccs1 [6-01] | 251 nM | 63.1 nM | 20 nM |  |  |  |
| O=c1c(NC2CCN(Cc3ccc4ccccc4c3)CC2)nccn1-c1ccc2[nH]ccc2c1 [6-02] | 126 nM | 31.6 nM | 25.1 nM |  |  |  |
| O=c1c(NC2CCN(Cc3ccc4ccccc4c3)CC2)nccn1-c1ccc2cc[nH]c2c1 [6-03] | 50.1 nM | 39.8 nM | 50.1 nM |  |  |  |
| O=c1c(NC2CCN(Cc3ccc4ccccc4c3)CC2)nccn1-c1csc2ccccc12 [6-04] | 251 nM | 50.1 nM | 31.6 nM |  |  |  |
| O=c1c(NC2CCN(Cc3ccc4ccccc4c3)CC2)nccn1-c1cncnc1 [6-08] | 631 nM | 200 nM | 200 nM |  |  |  |
| O=c1c(NC2CCN(Cc3ccc4ccccc4c3)CC2)nccn1-c1cnc2ccccc2c1 [6-09] | 200 nM | 126 nM | 50.1 nM |  |  |  |
| O=c1c(NC2CCN(Cc3ccc4ccccc4c3)CC2)nccn1Cc1cc2ccccc2cn1 [6-10] | 251 nM | 63.1 nM | 126 nM |  |  |  |
| O=c1[nH]ncn1CCCn1ccnc(NC2CCN(Cc3ccc4ccccc4c3)CC2)c1=O [6-11] | 794 nM | 100 nM | 126 nM |  |  |  |
| O=c1c(NC2CCN(Cc3ccc4ccccc4c3)CC2)nccn1-c1ccc2c(c1)CN(CCO)CC2 [6-12] | 31.6 nM | 5.01 nM | 39.8 nM |  |  |  |
| CC(=O)N1CCc2ccc(-n3ccnc(NC4CCN(Cc5ccc6ccccc6c5)CC4)c3=O)cc2C1 [6-13] | 126 nM | 10 nM | 25.1 nM |  |  |  |
| Cn1ccnc1CN1CCc2ccc(-n3ccnc(NC4CCN(Cc5ccc6ccccc6c5)CC4)c3=O)cc2C1 [6-15] | 100 nM | 3.98 nM | 10 nM |  |  |  |
| O=c1c(NC2CCN(Cc3ccc4ccccc4c3)CC2)nccn1-c1ccccn1 [6-16] | 63.1 nM | 25.1 nM | 158 nM |  |  |  |
| O=c1[nH]c(-c2cccc(Br)c2)c(Cl)nc1NC1CCN(Cc2ccc3ccccc3c2)CC1 [7-01] | 1580 nM | 794 nM | 501 nM |  |  |  |
| O=c1[nH]c(-c2cccc(CNCCF)c2)c(Cl)nc1NC1CCN(Cc2ccc3ccccc3c2)CC1 [7-03] | 794 nM | 200 nM | 794 nM |  |  |  |
| O=c1[nH]c(-c2cccc(CNCC3CCCO3)c2)c(Cl)nc1NC1CCN(Cc2ccc3ccccc3c2)CC1 (stereo not drawn) [7-04] | 631 nM | 126 nM | 398 nM |  |  |  |
| O=c1[nH]c(-c2cccc(CN3CCCCC3)c2)c(Cl)nc1NC1CCN(Cc2ccc3ccccc3c2)CC1 [7-05] | 794 nM | 126 nM | 631 nM |  |  |  |
| O=c1[nH]c(-c2cccc(CN3CCC(F)CC3)c2)c(Cl)nc1NC1CCN(Cc2ccc3ccccc3c2)CC1 [7-06] | 1260 nM | 251 nM | 1000 nM |  |  |  |
| O=c1[nH]c(-c2cccc(CN3CCOCC3)c2)c(Cl)nc1NC1CCN(Cc2ccc3ccccc3c2)CC1 [7-08] | 1580 nM | 501 nM | 1260 nM |  |  |  |
| CN1CCN(Cc2cccc(-c3[nH]c(=O)c(NC4CCN(Cc5ccc6ccccc6c5)CC4)nc3Cl)c2)CC1 [7-10] | 631 nM | 100 nM | 200 nM |  |  |  |
